# Data: US5521208A, “Compositions and methods for the treatment of the metabolically impaired and for improved compliance” (Alcon Laboratories, Inc., priority 1993, dated 1996)
# Read-outs that look alike come from different tables or passages of the source.
# What was measured:
# [1] = target: T1, Rat Aldose Reductase (AR) (Rattus norvegicus, UniProt P07943); assay: In vitro inhibition of aldose reductase (rat lens supernatant fraction); assay type: biochemical; conditions: for IC50: ± SEM, n = 3-4, rat lens supernatant, pH 7.5, room temperature; for difference in activity in vitro between A(+) and A(-): Rat AR and Rat L-HDH, conclusion in words
# T1 construct: rat lens supernatant fraction; from tissue; host or cells: rat lens, supernatant fraction
# Excerpt: (§1) The in vitro inhibiting activity of racemic 2,7-difluoro-4-methoxyspiro[9H-fluorene-9,4'-imidazolidine]-2',5'-dione, prepared in accordance with U.S. Pat. No. 4,864,028 (hereafter referred to as "A(±)") was compared to that of the R(+) and S(-) enantiomers thereof, prepared in accordance with U.S. Pat. No. 5,151,544 (referred to hereafter as "A(+)" and "A(-)", respectively), with respect to aldose reductase and L-hexonate dehydrogenase.
# (§2) The test methods used for measuring in vitro inhibition activities of these compounds toward aldose reductase and L-hexonate dehydrogenase are known. The method utilized for measuring the inhibition of aldose reductase is described in B. W. Griffin and L. G. McNatt, "Characterization of the Reduction of 3-Acetylpyridine Adenine Dinucleotide Phosphate by Benzyl Alcohol Catalyzed by Aldose Reductase", Arch. Biochem, Biophys. 246:75-81 (1986). The method utilized for measuring the inhibition of L-hexonate dehydrogenase is described in M. T. DuPriest, B. W. Griffin, D. Kuzmich, and L. G. McNatt "Spiro[fluoreneisothiazolidin]one Dioxides: New Aldose Reductase and L-Hexonate Dehydrogenase Inhibitors", J. Med Chem. 34:3229-3234 (1991). Both methods are based on detection of the rate of increase of fluorescence of NADPH (reduced form of nicotinamide adenine dinucleotide phosphate) or an analog, formed as a product of the enzymatic reaction, i.e., oxidation of an appropriate alcohol substrate by the respective oxidized pyridine species. In the assay for aldose reductase, the reaction mixture contained 50 mmol/L potassium phosphate buffer (pH 7.5), 12 mmol/L benzyl alcohol, 12 μmol/L oxidized 3-acetylpyridine adenine dinucleotide phosphate, and rat lens supernatant fraction (50-100 μg total protein) in a total volume of 1.0 mL. The assay for L-hexonate dehydrogenase consisted of the following components: 50 mmol/L potassium phosphate buffer (pH 7.5), 20 mmol/L L-gulonate, 25 μmol/L NADP+, and rat kidney supernatant fraction (50-100 µg total protein) in a total volume of 1.0 mL. The enzyme-dependent rate of formation of the reduced pyridine nucleotide was monitored with a fluorescence spectrophotometer set at excitation/emission wavelengths of 365/480 nm for the NADP+analog and 365/465 nm for NADP+; slit widths were routinely set at 10 nm. Reactions were carried out at room temperature; blank rates with one component of the reaction omitted were typically less than 10% of the rate of the complete reaction.
# The IC50 values (inhibitor concentration producing 50% inhibition of the reaction under the standard assay conditions described) were computed by linearregression analysis of the linear portion of the dose-response curve for each inhibitor.
# [2] = Plasma pharmacokinetics in rats following a 2 mg/kg intravenous bolus injection; assay type: in vivo, male Sprague-Dawley rats; conditions: 2 mg/kg i.v. bolus; for AUC(0-inf): linear trapezoidal summation with extrapolation to infinity; for clearance: read-out: CLT (total plasma clearance) (converted); for half-life / k el: 2 mg/kg; for concentration at 1 h / concentration at 4 h / concentration at 8 h / concentration at 24 h / concentration at 31 h / concentration at 48 h / concentration at 72 h / concentration at 96 h / concentration at 120 h / concentration at 144 h / concentration at 168 h / concentration at 216 h: Mean ± SD (N = 3); for concentration at 96 h / concentration at 120 h / concentration at 144 h / concentration at 168 h / concentration at 216 h: ND = Not Detected (lower limit of detection 2 ng/mL)
# Description: The pharmacokinetic properties of A(±) of Example 1 were compared with those of each enantiomer, A(+) and A(-) of Example 1. The comparison was made in rats following an intravenous bolus injection.
# The test articles were formulated in a 0.1N sodium carbonate solution to yield a 2 mg/mL solution. A total of 126 male Sprague-Dawley rats weighing 200-300 g were divided into three groups of 42 rats each. The animals were offered food and water ad libitum except fasting overnight prior to and for four hours after dosing. Rats in each group received a single 2 mg/kg intravenous dose of A(+) or A(-) or A(±) via the tail vein. At the following times postdose, three rats from each group were anesthetized by carbon dioxide inhalation and plasma samples were collected from each animal: 0, 1, 4, 8, 24, 31, 48, 72, 96, 120, 144, 168, 216, and 336 hours. Plasma concentrations of each drug were determined by gas chromatographic-electron capture (GC-EC) methods known to those skilled in the art, with a lower limit of detection of 2 ng/mL. See, e.g., Park, Y. H., et al., Xenobiotica 22:543-550 (1992). The values of the elimination rate constants, α,β and γ, were obtained by linear regression analysis of the log-linear portion of the plasma concentration-time curve. These constants correspond to the initial distribution, disposition and terminal elimination phases, respectively. The α and β values were obtained by the method of residuals. The corresponding half-lives (t1/2α, t1/2β and t1/2γ) were calculated by dividing 0.693 by each respective parameter. The area under the plasma concentration versus time curve from 0 to infinity (AUC..infin.) was calculated by linear trapezoidal summation with extrapolation to infinity. Total plasma clearance CLT was calculated as dose divided by AUC..infin.. The area under the first moment curve (AUMC) is the area under the curve observed for the product of time and concentration, versus time. Apparent volume of distribution at steady state (Vss) was calculated by the product of dose and AUMC, divided by (AUC..infin.)^2.
# [3] = tested on: sorbitol in three tissues (lens, sciatic nerve and retina); assay: In vivo inhibition of sorbitol in three tissues (lens, sciatic nerve and retina) of severely diabetic rats, dosed orally; conditions: Rattus norvegicus, 192 h, oral, once a day for eight days, footnote 1: ED60, read-out: ED50, Lens (footnote: for lens, ED60 value is given)
# [4] = tested on: sorbitol in three tissues (lens, sciatic nerve and retina); assay: as above; conditions: for ED50: Rattus norvegicus, 192 h, once a day for eight days
# Description: To compare the in vivo efficacy of A(±) (from Example 1) and its enantiomers, A(+) and A(-), the ED50 values (the effective dose, in mg/kg/day, to achieve 50% inhibition) for inhibition of sorbitol in three tissues (lens, sciatic nerve and retina) of severely diabetic rats, dosed orally for eight days, once a day, were recorded.
# [5] = target: T2, Rat L-Hexonate Dehydrogenase (L-HDH) (Rattus norvegicus, UniProt P51635); assay: In vitro inhibition of L-hexonate dehydrogenase (rat kidney supernatant fraction); assay type: biochemical; conditions: ± SEM, n = 2-3, pH 7.5, room temperature
# T2 construct: rat kidney supernatant fraction; from tissue; host or cells: rat kidney, supernatant fraction
# T2 sequence (P51635 1-325): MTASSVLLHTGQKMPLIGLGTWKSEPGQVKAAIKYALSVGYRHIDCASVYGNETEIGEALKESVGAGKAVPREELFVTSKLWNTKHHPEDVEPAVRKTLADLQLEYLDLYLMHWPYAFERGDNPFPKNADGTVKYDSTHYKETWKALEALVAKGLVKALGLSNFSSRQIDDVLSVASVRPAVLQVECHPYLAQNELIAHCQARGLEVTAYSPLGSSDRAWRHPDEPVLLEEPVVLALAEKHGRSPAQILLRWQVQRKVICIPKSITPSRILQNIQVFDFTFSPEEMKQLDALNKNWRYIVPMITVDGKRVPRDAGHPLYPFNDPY
# Excerpt: as §1
# as §2, with “The assay for L-hexonate dehydrogenase consisted of the following components: 50 mmol/L potassium phosphate buffer (pH 7.5), 20 mmol/L L-gulonate, 25 μmol/L NADP+, and rat kidney supernatant fraction (50-100 µg total protein) in a total volume of 1.0 mL.” left out, “Reactions were carried out at room temperature; blank rates with one component of the reaction omitted were typically less than 10% of the rate of the complete reaction.” left out
# [6] = rat, plasma, iv, ND = Not Detected, read-out: t1/2γ (terminal elimination phase half-life) (converted)
# [7] = rat, plasma, iv, ND = Not Detected, read-out: γ (elimination rate constant, terminal elimination phase) (converted)
# [8] = rat, plasma, iv, read-out: t1/2α (initial distribution phase half-life) (converted)
# [9] = rat, plasma, iv, read-out: t1/2β (disposition phase half-life) (converted)
# [10] = rat, plasma, iv, read-out: α (elimination rate constant, initial distribution phase) (converted)
# [11] = rat, plasma, iv, read-out: β (elimination rate constant, disposition phase) (converted)
# [12] = retina sorbitol, oral, A(-) value is (est.), read-out: ED50, Retina
# [13] = sciatic nerve sorbitol, oral, read-out: ED50, S. Nerve
SMILES,IC50 [1] [µM],AUMC [2] [μg/hour^2/mL],elimination profile (in words) [2],"AUC(0-inf) ([2]; rat, plasma, iv) [ng·h/mL]","clearance ([2]; rat, plasma, iv) [mL/min/kg]","half-life [2, 8] [h]","half-life [2, 9] [h]","k el [2, 10] [s⁻¹]","k el [2, 11] [s⁻¹]","concentration at 1 h ([2]; rat, plasma, iv) [ng/mL]","concentration at 4 h ([2]; rat, plasma, iv) [ng/mL]","concentration at 8 h ([2]; rat, plasma, iv) [ng/mL]","concentration at 24 h ([2]; rat, plasma, iv) [ng/mL]","concentration at 31 h ([2]; rat, plasma, iv) [ng/mL]","concentration at 48 h ([2]; rat, plasma, iv) [ng/mL]","concentration at 72 h ([2]; rat, plasma, iv) [ng/mL]",ED60 [3] [mg/kg/day],"ED50 [4, 12] [mg/kg]","ED50 [4, 13] [mg/kg]",IC50 [5] [µM],other results
"COc1cc(F)cc2c1-c1ccc(F)cc1C21NC(=O)NC1=O (racemic) [A(±), 2,7-difluoro-4-methoxyspiro[9H-fluorene-9,4'-imidazolidine]-2',5'-dione]",5.7 ± 1.7,854,kinetic profile similar to that of A(+) with the presence of a persistent elimination phase,60400,0.552,5.8,8,3.28e-05,2.36e-05,5080 ± 441,3590 ± 441,2420 ± 5440,352 ± 34,194 ± 22,108 ± 27,3 ± 4,0.28,0.26,0.12,2.2 ± 0.9,"Vd ([2]; rat, plasma, iv, read-out: Vss (apparent volume of distribution at steady state)): 0.47 L/kg; half-life [2, 6]: 40.7 h; k el [2, 7]: 4.72e-06 s⁻¹; concentration at 96 h ([2]; rat, plasma, iv): 17 ± 4 ng/mL; concentration at 120 h ([2]; rat, plasma, iv): 13 ± 3 ng/mL; concentration at 144 h ([2]; rat, plasma, iv): 11 ± 2 ng/mL; concentration at 168 h ([2]; rat, plasma, iv): 5 ± 2 ng/mL; concentration at 216 h ([2]; rat, plasma, iv): 2 ± 1 ng/mL; activity relative to A(+) ([4]; sorbitol inhibition in vivo, diabetic rats): about 50%"
"COc1cc(F)cc2c1-c1ccc(F)cc1[C@@]21NC(=O)NC1=O [A(+), 2,7-difluoro-4-methoxyspiro[9H-fluorene-9,4'-imidazolidine]-2',5'-dione]",5.5 ± 0.2,965,"triexponential elimination profile with an initial distribution phase, a disposition phase due to metabolism, and a slow terminal elimination phase",54400,0.612,3.1,14.5,6.17e-05,1.33e-05,2970 ± 679,2360 ± 456,2360 ± 281,486 ± 170,382 ± 49,162 ± 32,67 ± 15,0.15,0.15,0.08,3 ± 0.4,"difference in activity in vitro between A(+) and A(-) [1]: no significant difference in activity in vitro; half-life [2, 6]: 37.4 h; k el [2, 7]: 5e-06 s⁻¹; concentration at 96 h ([2]; rat, plasma, iv): 33 ± 11 ng/mL; concentration at 120 h ([2]; rat, plasma, iv): 11 ± 4 ng/mL; concentration at 144 h ([2]; rat, plasma, iv): 9 ± 1 ng/mL; concentration at 168 h ([2]; rat, plasma, iv): 5 ± 3 ng/mL; concentration at 216 h ([2]; rat, plasma, iv): 2 ± 1 ng/mL"
"COc1cc(F)cc2c1-c1ccc(F)cc1[C@]21NC(=O)NC1=O [A(-), 2,7-difluoro-4-methoxyspiro[9H-fluorene-9,4'-imidazolidine]-2',5'-dione]",5.9 ± 0.3,402,lacks a slow terminal elimination phase,63000,0.528,4.3,8.5,4.53e-05,2.25e-05,7330 ± 220,3800 ± 975,2780 ± 449,140 ± 17,127 ± 36,23 ± 8,4 ± 3,1.52,2 to 3,1,3 ± 0.4,"difference in activity in vitro between A(+) and A(-) [1]: no significant difference in activity in vitro; volume of distribution (in words) ([2]; compared with A(+)): significantly lower volume of distribution; factor by which less active than A(+) ([4]; in all tissues (lens, sciatic nerve, retina)): ≥ 10; maximum inhibition achieved at the highest dose ([4]; lens sorbitol, highest dose (1.5 mg/kg/day), oral, eight days): 40%"
